Measured values as given in PMC12372887, “Mechanism and cellular actions of the potent AMPK inhibitor BAY-3827” (Science Advances, 2025).
Like-named read-outs stand apart in the source and are kept apart here.

What was measured:
[1] = tested on: mouse primary hepatocytes; test: Immunoblot of AMPK signaling in primary hepatocytes; format: cell-based
Experimental: Mouse hepatocytes were isolated by collagenase perfusion as previously described ([47]). Hepatocytes were seeded in medium Eagle-199 (MEM-199) (#41150, Thermo Fisher Scientific) containing penicillin G (100 U/ml), streptomycin (100 μg/ml), and 10% (v/v) fetal bovine serum (FBS). Hepatocytes were left for attachment (3 to 4 hours) and serum-starved overnight at 37°C with 5% CO2 in MEM-199 supplemented with penicillin G (100 U/ml), streptomycin (100 μg/ml), 10 nM insulin, and 100 nM dexamethasone. […] Cells were then harvested in 0.5 ml of phosphate-buffered saline (PBS), transferred into 1 ml of 40% KOH and 2 ml of methanol followed by 1-hour incubation at 80°C. Lipids were […] by acidifying the samples in 37% HCl and extracted with petroleum ether. Extracts were allowed to evaporate to dryness and then dissolved in Ultima Gold scintillation fluid for determination of [^14C]-acetate incorporation into lipids.
Following compound treatment, the cells were washed with room temperature PBS and lysed on ice with the addition of lysis buffer [50 mM tris-HCl (pH 7.5), 150 mM NaCl, 1 mM EDTA, 1 mM EGTA, 0.27 M sucrose, 1% w/v Triton X-100, 20 mM glycerol-2 phosphate disodium, 50 mM NaF, and 5 mM Na4P2O7.10 H2O] containing proteases and phosphatase inhibitors [0.5 mM phenylmethylsulfonyl fluoride (PMSF), 1 mM benzamidine HCl, leupeptin (1 μg/ml), pepstatin A (1 μg/ml), 1 μM microcystin-LR, 1 mM Na3VO4, and 1 mM DTT]. Lysates were centrifuged at 10,000g, 4°C for 10 min, and protein concentration of the supernatant was determined with the Pierce Bradford Protein Assay Kit (Thermo Fisher Scientific, #23200) and read on the Hidex Plate Reader (software version 0.5.64.0). Samples were prepared in Laemmli sample buffer (tris 200 mM, 8% SDS, EDTA 2 mM, and 40% glycerol) supplemented with 10% DTT and boiled for 5 min at 100°C. Ten micrograms of protein per sample was run on a Criterion tris-glycine polyacrylamide gel (Bio-Rad, #5678095) and transferred to a nitrocellulose membrane. For cell signaling experiments in HEK293 cells, the samples were run on a Criterion TGX stain-free precast gel (Bio-Rad, catalog no. 5678085) with transfer to a polyvinylidene difluoride membrane performed in Bio-Rad Criterion blotter (#1704071) using tris-glycine transfer buffer (Bio-Rad, #1610734) following the manufacturer’s instructions. […]

AMPK = tested on: AMPK; parameters: method as in PMID 33492659; conditions: 2 μM AMP, cited from earlier work
[2] = in the presence of MK-8722 (10 μM)

## CC1=C(C#N)C(c2ccc3c(c2)c(NC(=O)c2ccccc2C)nn3C)C(C#N)=C(C)N1 [BAY-974, N-[5-(3,5-dicyano-2,6-dimethyl-1,4-dihydropyridin-4-yl)-1-methylindazol-3-yl]-2-methylbenzamide]
[1]; 5 μM, with or without MK-8722
  levels of pACC1, pRaptor, or pAMPK: no effect

## CCc1ccccc1C(=O)Nc1n[nH]c2c(C)c(F)c(C3C(C#N)=C(C)N(C)C(C)=C3C#N)cc12 [BAY-3827, N-[5-(3,5-dicyano-1,2,6-trimethyl-4H-pyridin-4-yl)-6-fluoro-7-methyl-1H-indazol-3-yl]-2-ethylbenzamide]
[1]; [2]
  concentration giving full inhibition of ACC1 phosphorylation: 5 µM
  concentration giving full inhibition of Raptor phosphorylation: 2.5 µM
[1]; with or without MK-8722 (10 μM)
  increased pThr172AMPK levels: only significant under MK-8722–treated conditions at 5 μM
AMPK; high (2 mM) ATP
  IC50: 15 nM
AMPK; low (10 μM) ATP
  IC50: 1.4 nM
